Assays:
Test in all cases: relative viability (nuclei count vs DMSO), 5 days (fraction); higher = more cells survive
NCI-H647 = system: NCI-H647
Procedure, shortened: (§1)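 A single step with final 0.05% Triton X-100, 1% formaldehyde and 1 ug/ml Hoechst fixed the cells and stained nuclei 5 days after treatment. Lung cancer cell lines in 1536-well plates had been treated by pin tool the day after seeding with one drug alone or a fixed anchor-drug dose plus five library-drug doses (not always all listed) in √10 steps, and nuclei were counted on 4× images. Relative viability is the ratio of nuclei in treated wells to nuclei in vehicle wells, taken as the median of duplicate plates.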

NCI-H1355 = system: NCI-H1355
Procedure, shortened: as §1

NCI-H1792 = system: NCI-H1792
Procedure, shortened: as §1

NCI-H522 = system: NCI-H522
Procedure, shortened: as §1

SK-LU-1 = system: SK-LU-1
Procedure, shortened: as §1

HARA = system: HARA
Procedure, shortened: as §1

EKVX = system: EKVX
Procedure, shortened: as §1

NCI-H661 = system: NCI-H661
Procedure, shortened: as §1

NCI-H2009 = system: NCI-H2009
Procedure, shortened: as §1

LOU-NH91 = system: LOU-NH91
Procedure, shortened: as §1

SK-MES-1 = system: SK-MES-1
Procedure, shortened: as §1

NCI-H2170 = system: NCI-H2170
Procedure, shortened: as §1

NCI-H2342 = system: NCI-H2342
Procedure, shortened: as §1

NCI-H1734 = system: NCI-H1734
Procedure, shortened: as §1

NCI-H2087 = system: NCI-H2087
Procedure, shortened: as §1

NCI-H2405 = system: NCI-H2405
Procedure, shortened: as §1

NCI-H1993 = system: NCI-H1993
Procedure, shortened: as §1

NCI-H1437 = system: NCI-H1437
Procedure, shortened: as §1

BEN = system: BEN
Procedure, shortened: as §1

HCC-827 = system: HCC-827
Procedure, shortened: as §1

HCC-366 = system: HCC-366
Procedure, shortened: as §1

NCI-H1395 = system: NCI-H1395
Procedure, shortened: as §1

Question: Which results are given for `Cc1sc2c(c1C)C(c1ccc(Cl)cc1)=N[C@@H](CC(=O)OC(C)(C)C)c1nnc(C)n1-2` [JQ1] + Cc1nc(Nc2ncc(C(=O)Nc3c(C)cccc3Cl)s2)cc(N2CCN(CCO)CC2)n1 [Dasatinib] (partner 0.075 µM)?
Answer: relative viability (NCI-H647; first compound 0.04 µM): 0.147; relative viability (NCI-H647; first compound 0.1265 µM): 0.0904; relative viability (NCI-H647; first compound 0.4 µM): 0.124; relative viability (NCI-H647; first compound 1.265 µM): 0.045; relative viability (NCI-H647; first compound 4 µM): 0.0403; relative viability (NCI-H1355; first compound 0.04 µM): 0.774; relative viability (NCI-H1355; first compound 0.1265 µM): 0.578; relative viability (NCI-H1355; first compound 0.4 µM): 0.617; relative viability (NCI-H1355; first compound 1.265 µM): 0.486; relative viability (NCI-H1355; first compound 4 µM): 0.447; relative viability (NCI-H1792; first compound 0.04 µM): 0.837; relative viability (NCI-H1792; first compound 0.4 µM): 0.839; relative viability (NCI-H1792; first compound 1.265 µM): 0.579; relative viability (NCI-H1792; first compound 4 µM): 0.5; relative viability (NCI-H522; first compound 0.04 µM): 0.951; relative viability (NCI-H522; first compound 0.1265 µM): 0.641; relative viability (NCI-H522; first compound 0.4 µM): 0.584; relative viability (NCI-H522; first compound 1.265 µM): 0.575; relative viability (NCI-H522; first compound 4 µM): 0.537; relative viability (SK-LU-1; first compound 0.04 µM): 0.185; relative viability (SK-LU-1; first compound 0.1265 µM): 0.18; relative viability (SK-LU-1; first compound 0.4 µM): 0.182; relative viability (SK-LU-1; first compound 1.265 µM): 0.124; relative viability (SK-LU-1; first compound 4 µM): 0.11; relative viability (HARA; first compound 0.04 µM): 0.207; relative viability (HARA; first compound 0.1265 µM): 0.242; relative viability (HARA; first compound 0.4 µM): 0.309; relative viability (HARA; first compound 1.265 µM): 0.236; relative viability (HARA; first compound 4 µM): 0.247; relative viability (EKVX; first compound 0.04 µM): 0.517; relative viability (EKVX; first compound 0.4 µM): 0.473; relative viability (EKVX; first compound 1.265 µM): 0.45; relative viability (EKVX; first compound 4 µM): 0.417; relative viability (NCI-H661; first compound 0.04 µM): 0.814; relative viability (NCI-H661; first compound 0.1265 µM): 0.564; relative viability (NCI-H661; first compound 0.4 µM): 0.558; relative viability (NCI-H661; first compound 1.265 µM): 0.379; relative viability (NCI-H661; first compound 4 µM): 0.556; relative viability (NCI-H2009; first compound 0.04 µM): 0.258; relative viability (NCI-H2009; first compound 0.1265 µM): 0.156; relative viability (NCI-H2009; first compound 0.4 µM): 0.196; relative viability (NCI-H2009; first compound 1.265 µM): 0.154; relative viability (NCI-H2009; first compound 4 µM): 0.185; relative viability (LOU-NH91; first compound 0.04 µM): 0.549; relative viability (LOU-NH91; first compound 0.1265 µM): 0.463; relative viability (LOU-NH91; first compound 0.4 µM): 0.324; relative viability (LOU-NH91; first compound 1.265 µM): 0.326; relative viability (LOU-NH91; first compound 4 µM): 0.354; relative viability (SK-MES-1; first compound 0.04 µM): 0.338; relative viability (SK-MES-1; first compound 0.1265 µM): 0.273; relative viability (SK-MES-1; first compound 0.4 µM): 0.311; relative viability (SK-MES-1; first compound 1.265 µM): 0.168; relative viability (SK-MES-1; first compound 4 µM): 0.171; relative viability (NCI-H2170; first compound 0.04 µM): 0.57; relative viability (NCI-H2170; first compound 0.1265 µM): 0.47; relative viability (NCI-H2170; first compound 0.4 µM): 0.392; relative viability (NCI-H2170; first compound 1.265 µM): 0.334; relative viability (NCI-H2170; first compound 4 µM): 0.305; relative viability (NCI-H2342; first compound 0.04 µM): 0.315; relative viability (NCI-H2342; first compound 0.1265 µM): 0.304; relative viability (NCI-H2342; first compound 0.4 µM): 0.328; relative viability (NCI-H2342; first compound 1.265 µM): 0.286; relative viability (NCI-H2342; first compound 4 µM): 0.299; relative viability (NCI-H1734; first compound 0.04 µM): 0.55; relative viability (NCI-H1734; first compound 0.1265 µM): 0.444; relative viability (NCI-H1734; first compound 0.4 µM): 0.457; relative viability (NCI-H1734; first compound 1.265 µM): 0.454; relative viability (NCI-H1734; first compound 4 µM): 0.382; relative viability (NCI-H2087; first compound 0.04 µM): 0.781; relative viability (NCI-H2087; first compound 0.1265 µM): 0.774; relative viability (NCI-H2087; first compound 0.4 µM): 0.466; relative viability (NCI-H2087; first compound 1.265 µM): 0.414; relative viability (NCI-H2087; first compound 4 µM): 0.324; relative viability (NCI-H2405; first compound 0.04 µM): 0.19; relative viability (NCI-H2405; first compound 0.1265 µM): 0.195; relative viability (NCI-H2405; first compound 0.4 µM): 0.19; relative viability (NCI-H2405; first compound 1.265 µM): 0.169; relative viability (NCI-H2405; first compound 4 µM): 0.147; relative viability (NCI-H1993; first compound 0.04 µM): 0.574; relative viability (NCI-H1993; first compound 0.1265 µM): 0.798; relative viability (NCI-H1993; first compound 0.4 µM): 0.597; relative viability (NCI-H1993; first compound 1.265 µM): 0.532; relative viability (NCI-H1993; first compound 4 µM): 1.44; relative viability (NCI-H1437; first compound 0.04 µM): 0.394; relative viability (NCI-H1437; first compound 0.1265 µM): 0.365; relative viability (NCI-H1437; first compound 0.4 µM): 0.263; relative viability (NCI-H1437; first compound 1.265 µM): 0.217; relative viability (NCI-H1437; first compound 4 µM): 0.244; relative viability (BEN; first compound 0.04 µM): 0.302; relative viability (BEN; first compound 0.1265 µM): 0.307; relative viability (BEN; first compound 0.4 µM): 0.309; relative viability (BEN; first compound 1.265 µM): 0.274; relative viability (BEN; first compound 4 µM): 0.217; relative viability (HCC-827; first compound 0.04 µM): 0.371; relative viability (HCC-827; first compound 0.4 µM): 0.227; relative viability (HCC-827; first compound 1.265 µM): 0.438; relative viability (HCC-827; first compound 4 µM): 0.421; relative viability (HCC-366; first compound 0.04 µM): 0.667; relative viability (HCC-366; first compound 0.4 µM): 0.599; relative viability (HCC-366; first compound 1.265 µM): 0.368; relative viability (HCC-366; first compound 4 µM): 0.324; relative viability (NCI-H1395; first compound 0.04 µM): 0.36; relative viability (NCI-H1395; first compound 0.1265 µM): 0.364; relative viability (NCI-H1395; first compound 0.4 µM): 0.362; relative viability (NCI-H1395; first compound 1.265 µM): 0.355; relative viability (NCI-H1395; first compound 4 µM): 0.388
